Source: patent US20080200405A1, “Drug Resistance Reversal In Neoplastic Disease” (priority 2007, published 2008)
Where a name gives a salt, the structure may show the parent alone.

What was measured:
[1] = tested on: bFGF-induced angiogenesis in the CAM model; assay: bFGF (FGF2)-stimulated CAM model; format: in vivo, chicken; settings: bFGF/FGF2 1 ug, 30 ug injected; for inhibition in vivo at 0.03 mg: Gallus gallus, read-out: % Inhibition ± SEM
Description: In vivo neovascularization was examined by the method previously described by Auerbach et al. (J. Dev. Biol. 41:391-394 (1974)). Ten-day old chicken embryos were purchased from Spafas, Inc. (Preston, Conn.) and were incubated at 37° C. with 55% relative humidity. In the dark, with the aid of a candling lamp, a small hole was punctured in the shell concealing the air sac with a hypodermic needle. A second hole was punctured in the shell on the broadside of the egg directly over an […] portion of the embryonic membrane, as observed during candling. An artificial air sac was created beneath the second hole by applying gentle vacuum to the first hole using a small rubber squeeze bulb. The vacuum caused the chorioallantoic membrane (CAM) to separate from the shell.
For inducing angiogenesis, sterile filter disks were saturated with bFGF (1 μg/ml) (Life Technologies, Gaithersburg, Md.) or other pro-angiogenesis factors and control disks were saturated with PBS without Calcium and Magnesium. Control disks were saturated with PBS without Calcium and Magnesium.
After 24-48 hr, 10-25 ul of test agent was injected intravenously or added topically into the CAM membrane. Eight-Ten eggs/treatment group were used.
The number of vessel branch points contained in a circular region equal to the area of a filter disk was counted for each section. Percent inhibition data are expressed as the quotient of the experimental value minus the negative control value divided by the difference between the positive control value and the negative control value. One image was counted in each CAM preparation, and findings from eight CAM preparations were analyzed for each treatment condition. In addition, each experiment was performed three times. The resulting angiogenesis index is the mean ±SEM (Standard Error of Measurement) of new branch points in each set of treatment. Statistical analysis of blood vessel branching patterns are performed by 1-way analysis of variance (ANOVA) comparing experimental with corresponding control groups. Statistical significance differences are assessed at P value of <0.05.
The CAM model protocol was modified to include stimulus with bFGF. The effect of injected OT 551 was assayed.
TP-H was applied to the CAM model study to determine its respective anti-angiogenesis effects according to the materials and methods provided in Example 1. Basic Fibroblast Growth Factor (bFGF) was used to induce angiogenesis in the CAM model.
Compounds were introduced via injection to the CAM model study to determine its respective anti-angiogenesis effects according to the materials and methods provided in Example 1. bFGF was used to induce angiogenesis in the CAM model.

TNFα = assay: Measurement of LPS Induced-TNFα in THP-1 Cells; format: cell-based, human; settings: Homo sapiens, THP-1; for inhibition at 10 µM: compound 10 uM, 5 ng/mL LPS, read-out: Mean Percent Inhibition of TNF-alpha using 5 ng/mL LPS; for IC50: read-out: TNFalpha IC50
Description: The lipid peroxidation assay method of Ohkawa, H.; Ohishi, N.; Yaki, K. Anal. Biochem. 1979, 95, 351 was used to evaluate […]. […] […] Cells were collected and spun at 1500 g for 10 minutes. Supernatant was collected and analyzed for TNFα.
Mean Percent Inhibition of TNF-alpha by compounds of the present invention is set forth in Table B. TNF-alpha inhibition data is set forth in Table B-1. OT-551 was used in both native form and in the form of nanoparticles. […] Other nitrogenous heterocyclic species of the invention are expected to show similar improvement in efficacy when disposed in nanoparticulate form.

[2] = tested on: Doxorubicin resistant SaOS2 cells; assay: Cancer cell viability (MTT) in the presence or absence of doxorubicin; format: cell-based, human; settings: compound 50 ug/mL, 3 days
Lipid peroxidation = Lipid peroxidation inhibition (method of Ohkawa); format: biochemical

Structure (SMILES)	inhibition in vivo at 0.03 mg [1] [%]	Branch pts ± SEM [1]	inhibition at 10 µM (TNFα) [%]	IC50 (TNFα) [µM]	Mean OD (×10^−3), MTT viability ([2]; Dox. 10^−6 M (+))	Mean OD (×10^−3), MTT viability ([2]; absence of Dox. (−))	melting point	Lipid Peroxidation Inhibition, % Inhibition (Lipid peroxidation; 10 uM) [%]	% Lipid Peroxidation inhibition (at 1 uM) (Lipid peroxidation) [%]	Lipid Peroxidation Inhibition, % Inhibition (Lipid peroxidation; 100 uM) [%]
CC1(C)C=C(CO)C(C)(C)N1O [Compound 8, 2,5-dihydro-2,2,5,5-tetramethyl-1-hydroxyl-1H-pyrrol-3-yl)methanol hydrogen chloride]	88.1 ± 7.6	57.8 ± 8.02	55 ± 6	20.3	197.25 ×10^−3	392.50 ×10^−3	–	–	–	–
CC1(C)CC(O)C(Br)C(C)(C)N1O (stereo not drawn) [Compound 9, 3-Bromo-2,2,6,6-tetramethyl-piperidine-1,4-diol]	82.2 ± 6.7	58.4 ± 6.52	48 ± 14	18.9	234.75 ×10^−3	509.00 ×10^−3	138.5 °C (dec.)	–	–	–
CC(C)(C)/[N+]([O-])=C/c1ccccc1 [Compound 17, α-phenyl-t-butyl nitrone, reference compound]	–	–	–	–	–	–	–	0.4	–	–
CC1(C)CC(C(N)=O)C(C)(C)N1O (stereo not drawn) [Compound 24, 1-hydroxy-2,2,5,5-tetramethylpyrrolidine-3-carboxamide]	–	–	–	≥ 100	362.00 ×10^−3	1166.50 ×10^−3	–	–	37.0	–
CC1(C)C=C(CO)CC(C)(C)N1O.Cl [Compound 25]	–	–	–	–	325.00 ×10^−3	1137.50 ×10^−3	–	–	42.0	–
Cc1cc(O)c(O)cc1C(=O)NC1CC(C)(C)N(O)C(C)(C)C1.Cl [Compound 27, 4,5-dihydroxy-2-methyl-N-(1-hydroxy-2,2,6,6-tetramethylpiperidin-4-yl)benzamide hydrogen chloride]	–	–	–	≥ 100	403.75 ×10^−3	1038.33 ×10^−3	–	–	53.4	–
CC(C)(C)c1cc(NC(=O)C2CC(C)(C)N(O)C(C)(C)C2)cc(C(C)(C)C)c1O.Cl [Compound 29, N-(3,5-di-tert-butyl-4-hydroxyphenyl)-1-hydroxy-2,2,6,6-tetramethylpiperidine-4-carboxamide hydrogen chloride]	–	–	–	45.5	105.75 ×10^−3	1328.00 ×10^−3	–	–	92.3	–
CC1(C)CC(CO)C(C)(C)N1O.Cl (stereo not drawn) [Compound 33]	–	–	–	–	300.00 ×10^−3	1237.50 ×10^−3	–	–	54.9	–
CC1(C)C=CCC(C)(C)N1O.Cl [Compound 35, 1-hydroxy-1,2,3,6-tetrahydro-2,2,6,6-tetramethylpyridine hydrogen chloride]	–	–	–	3.8	352.75 ×10^−3	1128.00 ×10^−3	–	–	64.4	–
CC1(C)COC(=O)C(C)(C)N1O.Cl [Compound 39, N-Hydroxyl-3,3,5,5-tetramethylmorpholin-2-one hydrochloride]	–	–	–	≥ 100	311.00 ×10^−3	1201.00 ×10^−3	145 °C (dec.)	–	–	–
CCOCC(C)(C)N(O)C(C)(C)COCC [Compound 40, N-Hydroxyl-N,N-bis(1-ethoxy-2-methylpropan-2-yl)amine hydrochloride]	–	–	–	≥ 100	338.75 ×10^−3	1177.25 ×10^−3	–	–	46.8	–
CCCCC1(O)CC(C)(C)N(O)C(C)(C)C1.Cl [Compound 41, 1,4-dihydroxy-4-n-butyl-2,2,6,6-tetramethylpiperidine hydrochloride]	–	–	–	0.9	261.25 ×10^−3	824.75 ×10^−3	187 °C (dec.)	–	–	–
CC1(C)CC(O)(c2ccccc2)CC(C)(C)N1O.Cl [Compound 42, 1,4-Dihydroxy-4-phenyl-2,2,6,6-tetramethylpiperidine hydrochloride]	–	–	–	1	311.00 ×10^−3	1068.67 ×10^−3	201.7 °C (dec.)	–	83.8	–
CC1(C)CC(OCc2ccccc2)CC(C)(C)N1O.Cl [Compound 43, 4-Benzyloxy-1-hydroxy-2,2,6,6-tetramethylpiperidine hydrochloride]	–	–	–	≥ 100	324.67 ×10^−3	1159.00 ×10^−3	181.5 °C (dec.)	–	88.5	–
CC1(C)CC(Oc2nsnc2-c2ccccc2)CC(C)(C)N1O.Cl [Compound 44, 1-hydroxy-4-(4-phenyl-1,2,5-thiadiazol-3-yloxy)-2,2,6,6-tetramethylpiperidine hydrochloride]	–	–	–	≥ 100	13.25 ×10^−3	23.00 ×10^−3	220.8 °C (dec.)	–	–	–
CC1(C)CC(Oc2nsnc2C#N)CC(C)(C)N1O [Compound 45, hydrochloride]	–	–	–	30	276.50 ×10^−3	1063.33 ×10^−3	–	–	91.5	–
COc1ccc(C2=C(c3cc(OC)c(OC)c(OC)c3)C(C)(C)N(O)C2(C)C)cc1C=O.Cl [Compound 46, 5-(2,5,-dihydro-4-(3,4,5-trimethoxyphenyl)-1-hydroxy-2,2,5,5-tetramethyl-1H-pyrrol-3-yl)-2-methoxybenzaldehyde hydrochloride]	–	–	–	1	32.75 ×10^−3	79.00 ×10^−3	–	–	80.1	–
CC1(C)CC(NC(=O)CCCCC2CCSS2)CC(C)(C)N1O.Cl (stereo not drawn) [Compound 49, 5-(1,2-dithialan-3-yl)-N-(1-hydroxy-2,2,6,6-tetramethylpiperidin-4-yl)pentanamide hydrochloride]	–	–	–	–	195.00 ×10^−3	1330.25 ×10^−3	164.7 °C (dec.)	–	–	–
CC(C)c1nsnc1OCC1=CC(C)(C)N(O)C1(C)C.Cl [Compound 51]	–	–	–	–	71.00 ×10^−3	1208.25 ×10^−3	155.7 °C	–	–	–
CC1(C)CC(Oc2nsnc2N2CCSCC2)CC(C)(C)N1O.Cl [Compound 55, 4-(4-(1-hydroxy-2,2,6,6-tetramethylpiperidin-4-yloxy)-1,2,5-thiadiazol-3-yl)thiomorpholine hydrochloride]	–	–	–	–	285.75 ×10^−3	1037.25 ×10^−3	218 °C (dec.)	–	–	–
CC1(C)CC(O)(c2ccc(F)cc2)CC(C)(C)N1O.Cl [Compound 57, 4-(4-Fluorophenyl)-1-hydroxyl-2,2,6,6-tetramethylpiperidin-4-ol hydrochloride]	–	–	–	≥ 100	426.25 ×10^−3	1078.50 ×10^−3	220 °C (dec.)	–	–	–
COc1cc(CNC2CC(C)(C)N(O)C(C)(C)C2)cc(OC)c1OC.Cl.Cl [Compound 58, N-(3,4,5-trimethoxybenzyl)-1-hydroxy-2,2,6,6-tetramethylpiperidin-4-amine dihydrochloride]	–	–	–	–	291.50 ×10^−3	1207.00 ×10^−3	181 °C	–	–	–
O=C(O)c1cc(C(=O)O)c2c(n1)C(=O)C(=O)c1cc(C(=O)O)[nH]c1-2 [PQQ, pyrroloquinoline quinone, reference compound]	–	–	–	–	–	–	–	–	–	93.7
